What was measured:
[1] = system: human platelets; experiment: Platelet aggregation assay; type: cell-based; details: human platelet-rich plasma, 5 minutes; CI-302 in escalating concentrations of up to 1 mM; PAF 0.125-0.25 μM (FIGS. 2-4)
Description: Platelet aggregation assay: Platelet-rich plasma was prepared from citrated whole human blood by centrifugation (200 g for 20 minutes). The final platelet concentration was adjusted to 2×10^8 platelets/ml with autologous plasma. CI-302 and PAF dissolved in PBS were added to induce platelet activation while the platelet sample was stirred at 1,000 rpm at 37° C. Aggregation was recorded for 5 minutes using an AggRAM 4-channel aggregometer (AggRAM aggregation Remote Analyzer Module; Helena Laboratories).

[2] = system: IL-12/23 p40; experiment: IL-12/23 p40 production by peptidoglycan-activated BMDCs (ELISA); type: cell-based, mouse; details: BMDCs activated with 10 μg/ml peptidoglycan
Description: (§1) Generation of bone-marrow derived dendritic cells (BMDC's): Bone-marrow was flushed out with cold RPMI-1640 medium from mice femur and tibia. A cell suspension was prepared and erythrocytes were removed using red blood cell (RBC) lysis buffer (Beit Haemek, Israel). Cells were washed in phosphate buffer saline (PBS) (Beit Haemek, Israel), and incubated at 4° C. for 15 minutes in buffer containing PBS and 0.5% bovine serum albumin (BSA) with mouse B220 and CD90 microbeads (Miltenyi biotech, Bergisch Gladbach, Germany). Cells were then washed, resuspended in the same buffer, and depleted from B and T cells on a Midi-Macs separation unit through a LD or LS column (Miltenyi Biotech). The depleted cells were then counted, washed and seeded (10^6/ml) in medium containing RPMI-1640 medium, L-glutamine, β-mercaptoethanol, 10% fetal calf serum (FCS), antibiotics (penicillin, streptomycin) and 20 ng/ml of mouse granulocyte-macrophage colony-stimulating factor (GM-CSF) (Peprotech, Rehovot, Israel). Medium was replaced every other day and cells were used for subsequent experiments on days 5-6 post culturing.
Cytokine analysis: For the detection of cytokine production, supernatants from 24-hour post-treatment BMDCs were tested with Duoset ELISA kits for mouse IL12/23 p40 (R&D systems, Minneapolis, Minn.). […]

[3] = system: IL-12/23 p40; experiment: q-PCR for p40 mRNA in peptidoglycan-activated CD11c+ BMDCs; type: cell-based, mouse; details: 20 μg/ml for 1 hour, then 10 μg/ml peptidoglycan for 2, 3 and 4 hours, normalized to GAPDH (FIG. 6)
Description: as §1, with “Medium was replaced every other day and cells were used for subsequent experiments on days 5-6 post culturing.” left out
Preparation of RNA, cDNA and Quantitative Real Time PCR (Q-PCR): RNA was prepared from cells using an RNeasy mini kit (Qiagen, Valencia, Calif.). […] All real time quantitative PCR (q-PCR) reactions were performed using LightCycler Taqman master (Roche Diagnostics, Mannheim, Germany) and the LightCycler (Roche). […]

[4] = system: MOG induced EAE; experiment: MOG peptide-induced experimental autoimmune encephalomyelitis (EAE), clinical score; type: in vivo, mice; details: from 5 days before to 5 days after MOG 35-55 immunization (FIG. 7)
Description: Mice: Female 8-10 week old […] mice were purchased from Harlan Laboratories (Israel). EAE (experimental autoimmune encephalomyelitis) induction: Mice were immunized subcutaneously with an emulsion containing 1.5 mg/ml MOG peptide 35-55 ([…]) (Sigma-Aldrich, Rehovot, Israel) and 2.5 mg/ml complete Freund's adjuvant (CFA), 100 μl in each flank. Pertussis toxin (500 ng in 500 μl PBS) was administered intra-peritoneally immediately and 48 hours after immunization. For prevention of EAE, CI-302 or PBS was given orally once a day for 10 consecutive days beginning 5 days before immunization. The severity of EAE was assessed utilizing clinical scores determined as follows: 0=normal, 1=limp tail, 2=weakness of hind limbs, 3=hind leg paralysis, 4=hind and fore leg paralysis, 5=moribund or death

[5] = system: pro-inflammatory chemokines and cytokines in spinal cords; experiment: q-PCR for pro-inflammatory chemokines and cytokines in spinal cords of EAE mice; type: in vivo; details: 0.4 mg/kg oral, 28 days after immunization
Description: Preparation of RNA, cDNA and Quantitative Real Time PCR (Q-PCR): RNA was prepared from cells using an RNeasy mini kit (Qiagen, Valencia, Calif.). For cDNA preparation, 1 μg of RNA was combined with oligo-dT for 10 minutes at 70° C., and 1^St strand buffer, dithiothreitol (DTT), deoxynucleotides (dNTP) and super-script reverse transcriptase (SS-II) (Invitrogen, Carlsbad, Calif.) were then added for 50 minutes at 42° C. The reaction was ended by incubation for an additional 15 minutes at 70° C. All real time quantitative PCR (q-PCR) reactions were performed using LightCycler Taqman master (Roche Diagnostics, Mannheim, Germany) and the LightCycler (Roche). For tissue mRNA expression, total RNA was extracted from spinal cord using the RNeasy lipid tissue mini kit RNA. Ready sets of probe with primers for q-PCR were purchased from Applied Biosystems (Foster City, Calif.).
EAE (experimental autoimmune encephalomyelitis) induction: Mice were immunized subcutaneously with an emulsion containing 1.5 mg/ml MOG peptide 35-55 ([…]) (Sigma-Aldrich, Rehovot, Israel) and 2.5 mg/ml complete Freund's adjuvant (CFA), 100 μl in each flank. Pertussis toxin (500 ng in 500 μl PBS) was administered intra-peritoneally immediately and 48 hours after immunization. For prevention of EAE, CI-302 or PBS was given orally once a day for 10 consecutive days beginning 5 days before immunization.

[6] = system: collagen-induced arthritis; experiment: Collagen-induced arthritis (CIA), arthritis score; type: in vivo, DBA/1 male mice; details: 0.4 mg/kg by gavage daily from day 22 to day 39, CIA mouse model (FIG. 9)
Description: Collagen-induced arthritis (CIA) induction: DBA/1 male mice were immunized to induce arthritis by a collagen injection containing complete Freund's adjuvant (CFA) in the base of the tail (day 0) and a booster shot in the flank (day 21). Mice were followed for arthritis development until day 39. Administration by gavage of the tested compounds and control substances began on day 22 and was carried out on a daily basis (6 times per week).
The severity of arthritis was assessed as follows:
Each paw is scored on a scale of 0-4 for the degree of swelling, erythema, and deformity of the joints (maximum score 16 per animal) as follows [Brackertz et al., 1977]:
0=normal 1=slight erythema and/or swelling of the ankle or wrist or toes 2=moderate erythema and/or swelling of the ankle or wrist 3=severe erythema and/or swelling of the ankle or wrist (or moderate in combination of all toes) 4=complete erythema and swelling of toes or fingers and ankle or wrist, and inability to bend the ankle or wrist

[7] = system: tyrosine phosphorylation in peritoneal macrophages; experiment: Western blot of phosphotyrosine in peritoneal macrophages; type: cell-based; details: thioglycolate-stimulated peritoneal macrophages, 20 μg/ml, 10 minutes (FIG. 10)
Description: Western blot: Thioglycolate-stimulated peritoneal macrophages were treated for 10 minutes with 20 μg/ml of CI-302. 20 μg/ml of phosphatidylcholine or solvent served as negative controls, whereas CI-201 served as a positive control. Whole cell lysates were resolved by SDS-PAGE on 10% Tris/HCl denaturing gel, transferred to nitrocellulose membranes and blotted with anti-phosphotyrosine antibody. Blotting with anti-ERK1/2 antibody served as a loading control.

Molecule | platelet aggregation [1] | maximal reduction of p40 production ([2]; 1 hour pre-incubation, supernatants 24 hours, highest CI-302 concentration tested (FIG. 5A)) | production of p40 by activated BMDCs ([2]; escalating CI-302 concentrations, ELISA at 24 hours (FIG. 5A)) | p40 mRNA expression [3] | protection against EAE development (mean clinical score) ([4]; 0.04 mg/kg orally once a day) | protection against EAE development (mean clinical score) ([4]; 0.4 mg/kg orally once a day) | p40 gene transcription in spinal cord ([5]; relative to PBS-treated group (FIG. 8A)) | p35 gene transcription in spinal cord ([5]; relative to PBS-treated group (FIG. 8B)) | CCL2 (MCP-1) transcription in spinal cord ([5]; relative to PBS-treated group (FIG. 8C)) | IFN-γ transcription in spinal cord ([5]; relative to PBS-treated group (FIG. 8D)) | TNF-α transcription in spinal cord ([5]; relative to PBS-treated group (FIG. 8E)) | CD4 mRNA levels in spinal cord ([5]; relative to control mice (FIG. 8F)) | arthritis severity (mean score) [6] | level of phosphotyrosine [7]
CCCCCCCCCCCCCCCCOC[C@H](COP(=O)([O-])OCC[N+](C)(C)C)OC(=O)CCC [CI-302, 1-hexadecyl-2-butyroyl-sn-glycero-3-phosphocholine] | no platelet aggregation was observed | 45% | significantly inhibited production of p40 by activated BMDCs in a dose-dependent manner | inhibited p40 mRNA expression considerably | noticeable though milder protection | close to complete protection | reduced | reduced | reduced | reduced | reduced | considerably lower | decreased arthritis severity throughout the study period | strongly reduced the level of phosphotyrosine
CCCCCCCCCCCCCCCCOC[C@H](COP(=O)([O-])OCC[N+](C)(C)C)OC(C)=O [PAF, 1-hexadecyl-2-acetoyl-sn-glycero-3-phosphocholine, reference compound] | substantial platelet aggregation | – | – | – | – | – | – | – | – | – | – | – | – | –
L-a-phosphatidylcholine [PC, reference compound] | – | – | – | little or no effect | – | – | – | – | – | – | – | – | – | –

Reference: patent US20110230450A1, “PLATELET-ACTIVATING FACTOR (PAF) ANALOGS AND USES THEREOF” (Vascular Biogenics Lts, priority 2007, published 2011)
